{"source": "patent US20240270695A1", "about": "“COMPOUNDS, COMPOSITIONS AND METHODS OF TREATING DISORDERS” (Chengdu Anticancer Bioscience LTD, priority 2021, published 2024)", "key": {"[1]": {"test_system": "RPE-Neo or RPE-MYC or RPE-MYC expressing an EGFP-Histone 2B fusion protein", "test": "Phenotypic screening assay (arrest in mitosis, change in DNA content, cell death; GE IN-Cell Analyzer 2000)", "format": "cell-based", "conditions": "Homo sapiens, compounds 20 nM to 20 μM, 24, 48 or 72 hours"}, "[2]": {"test_system": "RPE-Neo or RPE-MYC or RPE-MYC expressing an EGFP-Histone 2B fusion protein", "test": "MTT assays of cellular proliferation", "format": "cell-based", "conditions": "Homo sapiens, min. effective conc., read-out: Proliferative arrest (<50%)"}, "[3]": {"conditions": "read-out: Min. Effective conc. for Polyploidy (≥10%)"}, "[4]": {"conditions": "min. effective conc., read-out: Cell Death (>30%)"}, "[5]": {"conditions": "min. effective conc., read-out: Mitotic Arrest (≥10%)"}}, "data": [{"compound": "CNC(=O)C1CC(=O)N(Cc2ccc(-c3ccccc3)cc2)c2ccccc2C1=O", "note": "(centres unmarked) [Example 89, 1-([1,1′-biphenyl]-4-ylmethyl)-5-hydroxy-N-methyl-2-oxo-2,3-dihydro-1H-benzo[b]azepine-4-carboxamide]", "values": [{"measurement": "minimal effective concentration", "setting": "[1]; [3]", "result": "30 to 1000", "unit": "µM"}, {"measurement": "minimal effective concentration", "setting": "[1]; [4]", "result": "30 to 1000", "unit": "µM"}, {"measurement": "minimal effective concentration", "setting": "[1]; [5]", "result": "30 to 1000", "unit": "µM"}, {"measurement": "minimal effective concentration", "setting": "[2]", "result": "30 to 1000", "unit": "µM"}]}, {"compound": "CNC(=O)C1=C(O)c2ccccc2N(Cc2ccc(C(C)C)cc2)C(=O)C1", "note": "[Example 87, 5-hydroxy-1-(4-isopropylbenzyl)-N-methyl-2-oxo-2,3-dihydro-1H-benzo[b]azepine-4-carboxamide]", "values": [{"measurement": "minimal effective concentration", "setting": "[1]; [3]", "result": "30 to 1000", "unit": "µM"}, {"measurement": "minimal effective concentration", "setting": "[1]; [4]", "result": "30 to 1000", "unit": "µM"}, {"measurement": "minimal effective concentration", "setting": "[1]; [5]", "result": "30 to 1000", "unit": "µM"}, {"measurement": "minimal effective concentration", "setting": "[2]", "result": "30 to 1000", "unit": "µM"}]}, {"compound": "CNC(=O)C1=C(O)c2ccccc2N(Cc2ccccc2C)C(=O)C1", "note": "[Example 81, 5-hydroxy-N-methyl-1-(2-methylbenzyl)-2-oxo-2,3-dihydro-1H-benzo[b]azepine-4-carboxamide]", "values": [{"measurement": "minimal effective concentration", "setting": "[1]; [3]", "result": "30 to 1000", "unit": "µM"}, {"measurement": "minimal effective concentration", "setting": "[1]; [4]", "result": "30 to 1000", "unit": "µM"}, {"measurement": "minimal effective concentration", "setting": "[1]; [5]", "result": "30 to 1000", "unit": "µM"}, {"measurement": "minimal effective concentration", "setting": "[2]", "result": "30 to 1000", "unit": "µM"}]}, {"compound": "COc1ccc2c(c1)N(Cc1ccc(C)c(F)c1)C(=O)CC(C(=O)C1CC1)=C2O", "note": "[Example 141, 4-(cyclopropanecarbonyl)-1-(3-fluoro-4-methylbenzyl)-5-hydroxy-8-methoxy-1,3-dihydro-2H-benzo[b]azepin-2-one]", "values": [{"measurement": "minimal effective concentration", "setting": "[1]; [3]", "result": "0.001 to 1", "unit": "µM"}, {"measurement": "minimal effective concentration", "setting": "[1]; [4]", "result": "0.001 to 1", "unit": "µM"}, {"measurement": "minimal effective concentration", "setting": "[1]; [5]", "result": "0.001 to 1", "unit": "µM"}, {"measurement": "minimal effective concentration", "setting": "[2]", "result": "0.001 to 1", "unit": "µM"}]}, {"compound": "CNC(=O)C1=C(O)c2ccc(C#N)cc2N(Cc2ccc(C)c(F)c2)C(=O)C1", "note": "[Example 139]", "values": [{"measurement": "minimal effective concentration", "setting": "[1]; [3]", "result": "1 to 10", "unit": "µM"}, {"measurement": "minimal effective concentration", "setting": "[1]; [4]", "result": "1 to 10", "unit": "µM"}, {"measurement": "minimal effective concentration", "setting": "[1]; [5]", "result": "1 to 10", "unit": "µM"}, {"measurement": "minimal effective concentration", "setting": "[2]", "result": "1 to 10", "unit": "µM"}]}, {"compound": "CNC(=O)C1=C(O)c2ccccc2N(Cc2ccc(OC)cc2)C(=O)C1", "note": "[Example 91, 5-hydroxy-1-(4-methoxybenzyl)-N-methyl-2-oxo-2,3-dihydro-1H-benzo[b]azepine-4-carboxamide]", "values": [{"measurement": "minimal effective concentration", "setting": "[1]; [3]", "result": "10 to 30", "unit": "µM"}, {"measurement": "minimal effective concentration", "setting": "[1]; [4]", "result": "10 to 30", "unit": "µM"}, {"measurement": "minimal effective concentration", "setting": "[1]; [5]", "result": "1 to 10", "unit": "µM"}, {"measurement": "minimal effective concentration", "setting": "[2]", "result": "10 to 30", "unit": "µM"}]}, {"compound": "CNC(=O)C1CC(=O)N(Cc2ccc(C)cc2C)c2ccccc2C1=O", "note": "(centres unmarked) [Example 101, 1-(2,4-dimethylbenzyl)-5-hydroxy-N-methyl-2-oxo-2,3-dihydro-1H-benzo[b]azepine-4-carboxamide]", "values": [{"measurement": "minimal effective concentration", "setting": "[1]; [3]", "result": "1 to 10", "unit": "µM"}, {"measurement": "minimal effective concentration", "setting": "[1]; [4]", "result": "1 to 10", "unit": "µM"}, {"measurement": "minimal effective concentration", "setting": "[1]; [5]", "result": "1 to 10", "unit": "µM"}, {"measurement": "minimal effective concentration", "setting": "[2]", "result": "1 to 10", "unit": "µM"}]}, {"compound": "CNC(=O)C1=C(O)c2cc(F)ccc2N(Cc2ccc(C)c(F)c2)C(=O)C1", "note": "[Example 135, 7-fluoro-1-(3-fluoro-4-methylbenzyl)-5-hydroxy-N-methyl-2-oxo-2,3-dihydro-1H-benzo[b]azepine-4-carboxamide]", "values": [{"measurement": "minimal effective concentration", "setting": "[1]; [3]", "result": "1 to 10", "unit": "µM"}, {"measurement": "minimal effective concentration", "setting": "[1]; [4]", "result": "1 to 10", "unit": "µM"}, {"measurement": "minimal effective concentration", "setting": "[1]; [5]", "result": "1 to 10", "unit": "µM"}, {"measurement": "minimal effective concentration", "setting": "[2]", "result": "1 to 10", "unit": "µM"}]}]}
